Literature values, collected in US10751314B2, “Compositions comprising rumenic acid-rich conjugated linoleic acid for joint health” (STEPAN SPECIALTY PRODUCTS, LLC, priority 2016, dated 2020).

Columns and labels:
[1] = test system: young men and women with birch pollen allergy; details: 8 weeks of supplementation
human epithelial cells = details: via activation of PPARγ
PPARγ = details: mouse macrophage cells

CCCCCC/C=C/C=C\CCCCCCCC(=O)O [RA, cis-9, trans-11 linoleic acid]
Allergic responses mediated by inflammation [1]: reduced
Inflammatory responses (human epithelial cells): reduced inflammatory responses
Antioxidant activity (PPARγ): served as an antioxidant
PPARγ activation (PPARγ): activated
